This is an account of results in US20050261290A1, “Novel compounds of proline and morpholine derivatives” (priority 2004, published 2005).

Where two headings read alike, the source gives them in different places.

One test relates to normal subjects. The note with it: ingestion; cited from earlier work.
A further test has as its system healthy human volunteers. The conditions noted are these: healthy human volunteers treated with carbenoxolone; cited from earlier work.
For the next test, the system named is bone nodule formation. The note with it: cited from earlier work.
The next test addresses human 11b-hsd-1 (Homo sapiens, UniProt P28845). Put plainly: Inhibition constant Ki of human 11b-hsd-1 (3H-cortisone to 3H-cortisol conversion, HPLC). Type of test: biochemical. The note with it: for Ki: apparent Ki, read-out: Ki app.

Chain of human 11b-hsd-1 (P28845 whole entry): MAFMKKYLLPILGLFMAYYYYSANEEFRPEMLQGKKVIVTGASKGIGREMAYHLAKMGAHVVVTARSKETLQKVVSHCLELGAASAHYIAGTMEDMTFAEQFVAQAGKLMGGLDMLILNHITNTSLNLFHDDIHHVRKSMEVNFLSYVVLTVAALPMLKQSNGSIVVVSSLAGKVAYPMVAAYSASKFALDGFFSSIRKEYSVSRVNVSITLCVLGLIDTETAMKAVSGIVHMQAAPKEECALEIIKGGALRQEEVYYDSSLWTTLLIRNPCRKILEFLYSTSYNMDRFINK
Procedure for human 11b-hsd-1: In each well, varying amounts of compounds are incubated with a fixed amount of 11b-hsd-1 (4 nM) and NADPH (500 μM) for 30 to 40 min at room temperature in the assay buffer. The enzyme concentration was determined by titration using reversible tight-binding inhibitors. […] The area of 3H-cortisol is calculated and plotted versus time to determine a linear velocity. […] Where vi, and vo are the rates of cortisol formation in the presence and in the absence of inhibitor, respectively, I is the inhibitor concentration and E is the 11 b-hsd-1 concentration in the assay buffer. […] NADPH, Glucose-6-Phosphate (G6P), and Glucose-6-Phosphate dehydrogenase was purchased from Sigma.

`CC1(C)[C@@H](OC(=O)CCC(=O)O)CC[C@]2(C)[C@H]3C(=O)C=C4[C@@H]5C[C@@](C)(C(=O)O)CC[C@]5(C)CC[C@@]4(C)[C@]3(C)CC[C@@H]12` [carbenoxolone]: the “reduction of the intraocular pressure” value in the test on normal subjects is given as 20%. For the same compound, the hepatic insulin sensitivity entry in the test with healthy human volunteers is “improved”. In the test with bone nodule formation, the “negative effect of glucocorticoid on bone nodule formation” value is recorded as “blocked”.

Consider `N#Cc1ccc(CN2CCCC(C(=O)NC3C4CC5CC(C4)CC3C5)C2)cc1` (centres unmarked) [Example 163], for which, at human 11b-hsd-1 (compound at 0.1 μM), at 0.1 µM the inhibition was 100%. The same measure, in the same setting: to `CC(C)CN1CCOC[C@@H]1C(=O)NCc1c(F)cccc1F` [Example 32] belongs 67%.

For `CC1(C)CC(NC(=O)C2COCCN2Cc2cccc(OC(F)F)c2)CC(C)(C)C1` (centres unmarked) [Example 189], at human 11b-hsd-1 (human 11b-hsd-1), the Ki amounted to 1.1 nM. Also, at 0.1 µM the inhibition on human 11b-hsd-1 (compound at 0.1 μM) was 100%. Consider `CN(C(=O)[C@H]1COCCN1CC1CCOCC1)C1CCCCC1` [Example 49], for which, at human 11b-hsd-1 (compound at 0.1 μM), the inhibition (as a rule, the percentage by which the read-out fell short of the control) at 0.1 µM turned out to be 64%. Still for that read-out and setting: the result for `C[C@@H](O)CN1CCC[C@@H]1C(=O)NC1C2CC3CC(C2)CC1C3` (some centres unmarked) [Example 118] reads 100%.

In turn, `Cc1cc(Cl)ccc1O[C@@H]1CN[C@H](C(=O)NC2C3CC4CC(C3)CC2C4)C1` (some centres unmarked) [Example 349] gave an inhibition at 0.1 µM against human 11b-hsd-1 (0.1 μM compound) of 100%. Moreover, the Ki on human 11b-hsd-1 came out at 1.8 nM. In turn, `O=C(NC1C2CC3CC(C2)CC1C3)[C@@H]1C[C@H](Oc2ccc(Cl)cc2)CN1` (some centres unmarked) [Example 339] came in with an inhibition at 0.1 µM against human 11b-hsd-1 (0.1 μM compound) of 97.7%. The Ki on human 11b-hsd-1 was determined as 1 nM.

`CC(C)CN1CCC[C@@H]1C(=O)N[C@H](C)c1ccccc1` [Example 287]: on human 11b-hsd-1 (0.1 μM compound), at 0.1 µM the inhibition was 98.7%. Further, the Ki at human 11b-hsd-1 turned out to be 3.39 nM.

The compound `CCOc1ccccc1O[C@@H]1CN[C@H](C(=O)NC2C3CC4CC(C3)CC2C4)C1` (some centres unmarked) [Example 361] had an inhibition at 0.1 µM on human 11b-hsd-1 (0.1 μM compound) of 100%. For the same compound, the Ki on human 11b-hsd-1 is 1.9 nM.

Turning to `CC1(C)CC(NC(=O)C2COCCN2CC2CCCC2)CC(C)(C)C1` (centres unmarked) [Example 190], the Ki at human 11b-hsd-1 (human 11b-hsd-1) came out at 1.1 nM. Moreover, 0.1 µM produced 100% inhibition on human 11b-hsd-1 (compound at 0.1 μM). Consider `CCN1CCC[C@@H]1C(=O)NC12CC3CC(CC(C3)C1)C2` [Example 23], for which, on human 11b-hsd-1 (human 11b-hsd-1), the Ki turned out to be 2.6 nM. In addition, on human 11b-hsd-1 (compound at 0.1 μM), testing at 0.1 µM gave an inhibition of 94%. For `O=C(NCc1ccccc1Cl)[C@H]1CCCN1Cc1ccccc1` [Example 247], testing at 0.1 µM at human 11b-hsd-1 (0.1 μM compound) gave an inhibition of 88%. In addition, the Ki on human 11b-hsd-1 is 14 nM. Taken in the same sequence, the figures for `CC(C)CN1CCC[C@@H]1C(=O)NCc1ccccn1` [Example 219] were 86.6% and 168 nM. In the same order, the values of `O=C(NCc1ccc(F)cc1F)[C@H]1CCCN1CCC(F)(F)F` [Example 242] are 78.9% and 44 nM. `O=C(NC1CCCCC1)[C@@H]1C[C@H](Oc2cc(F)ccc2F)CN1` [Example 371] returned an inhibition at 0.1 µM at human 11b-hsd-1 (0.1 μM compound) of 86.2%.

Consider `O=C(NCc1ccc(F)cc1)[C@H]1CCCN1Cc1ccc(Cl)cc1` [Example 235], for which the inhibition at 0.1 µM against human 11b-hsd-1 (0.1 μM compound) was found to be 83.8%. In addition, the Ki on human 11b-hsd-1 came out at 25 nM. With `COc1cccc(CNC(=O)[C@H]2CCCN2CC(C)C)c1` [Example 260], the inhibition at 0.1 µM at human 11b-hsd-1 (0.1 μM compound) is 89.6%. Besides, the Ki at human 11b-hsd-1 turned out to be 16 nM. `CCN(CC)CCN1CCC[C@@H]1C(=O)NC1C2CC3CC(C2)CC1C3` (some centres unmarked) [Example 109]: at human 11b-hsd-1 (compound at 0.1 μM), 0.1 µM produced 77% inhibition. In turn, `O=C(NC12CC3CC(CC(C3)C1)C2)[C@H]1CCCC[C@H]1NCc1ccc(Cl)cc1` (racemic) [Example 201] came in with an inhibition at 0.1 µM on human 11b-hsd-1 (0.1 μM compound) of 100%. In addition, the Ki on human 11b-hsd-1 stood at 5.9 nM. In the case of `O=C(NC1C2CC3CC(C2)CC1C3)[C@H]1CCCN1CC1CCNCC1` (some centres unmarked) [Example 144], on human 11b-hsd-1 (compound at 0.1 μM), 0.1 µM produced 87% inhibition.

Compound `CCN1[C@@H](C(=O)NC2CCCCC2)CCC1(C)C` [Example 131] had an inhibition at 0.1 µM at human 11b-hsd-1 (compound at 0.1 μM) of 88%. Consider `O=C(NC12CC3CC(CC(C3)C1)C2)C1COCCN1CC1CCCCC1` (centres unmarked) [Example 181], for which the Ki at human 11b-hsd-1 (human 11b-hsd-1) worked out at 1.8 nM. On human 11b-hsd-1 (compound at 0.1 μM), the inhibition at 0.1 µM was 100%. In the case of `N#Cc1ccc(CN2CCC[C@@H]2C(=O)N[C@@H]2CCCc3ccccc32)cc1` [Example 297], on human 11b-hsd-1 (0.1 μM compound), the inhibition at 0.1 µM turned out to be 100%. Also, at human 11b-hsd-1, the Ki was found to be 3.7 nM. For `NC1C[C@H](C(=O)NC2C3CC4CC(C3)CC2C4)N(CC2CCCC2)C1` (stereo partly drawn) [Example 45, N-2-adamantyl-4-amino-1-(cyclopentylmethyl)-D-prolinamide], on human 11b-hsd-1 (compound at 0.1 μM), the inhibition at 0.1 µM is 81%.

On human 11b-hsd-1 (compound at 0.1 μM), `O=C(NC1C2CC3CC(C2)CC1C3)[C@H]1CCCN1CCN1CCOCC1` (some centres unmarked) [Example 128] registered an inhibition at 0.1 µM of 100%. Turning to `C[C@@H](NC(=O)[C@H]1COCCN1Cc1ccccc1)c1ccc(Cl)cc1` [Example 314], the inhibition at 0.1 µM on human 11b-hsd-1 (0.1 μM compound) was 94.8%. For the same compound, the Ki on human 11b-hsd-1 was found to be 8.96 nM. Taken in the same sequence, the figures for `COc1ccccc1CNC(=O)[C@H]1CCCN1Cc1cccc(Cl)c1` [Example 266] were 77.9% and 57 nM. Taken in the same sequence, the figures for `O=C(NCc1c(F)cccc1F)[C@H]1COCCN1Cc1ccccc1` [Example 327] were 68.9% and 110 nM. In the same order, the values of `O=C(NCc1ccc(F)cc1)[C@H]1CCCN1CCC(F)(F)F` [Example 324] are 69.2% and 69 nM. Take `O=C(NC1CCCCC1)[C@H]1CCCN1CC(F)(F)F` [Example 101]: the Ki on human 11b-hsd-1 (human 11b-hsd-1) was found to be 5 nM. For the same compound, 0.1 µM produced 100% inhibition against human 11b-hsd-1 (compound at 0.1 μM).

Compound `CC(C)CN1CCC[C@@H]1C(=O)NC(C)c1ccc(F)cc1` (some centres unmarked) [Example 290] had an inhibition at 0.1 µM against human 11b-hsd-1 (0.1 μM compound) of 96.2%. Further, the Ki at human 11b-hsd-1 was 6.85 nM. In the same order, the values of `O=C(NC1C2CC3CC(C2)CC1C3)[C@@H]1C[C@H](Oc2cccc(C(F)(F)F)c2)CN1` (some centres unmarked) [Example 357] are 100% and 2.1 nM. Regarding `CCCN1CCC[C@@H]1C(=O)NC1CCC(C)CC1` (some centres unmarked) [Example 106], at human 11b-hsd-1 (human 11b-hsd-1), the Ki amounted to 2 nM. Also, at human 11b-hsd-1 (compound at 0.1 μM), the inhibition at 0.1 µM came to 100%. `O=C(NC1C2CC3CC(C2)CC1C3)[C@H]1COCCN1CC1CC1` (some centres unmarked) [Example 279]: the inhibition at 0.1 µM on human 11b-hsd-1 (0.1 μM compound) stood at 100%. Besides, on human 11b-hsd-1, the Ki came to 3 nM. In the case of `N#Cc1ccc(CN2CCC[C@@H]2C(=O)NC2CCCCC2)cc1` [Example 52], on human 11b-hsd-1 (human 11b-hsd-1), the Ki turned out to be 4.6 nM. In addition, at human 11b-hsd-1 (compound at 0.1 μM), the inhibition at 0.1 µM is 100%. Regarding `CN(C(=O)C1COCCN1CC1CCCCC1)C1CCCCC1` (centres unmarked) [Example 180], the Ki at human 11b-hsd-1 (human 11b-hsd-1) came out at 32 nM. For the same compound, at 0.1 µM the inhibition on human 11b-hsd-1 (compound at 0.1 μM) was 72.1%. `CN1CCC(CN2CCOC[C@@H]2C(=O)NC2C3CC4CC(C3)CC2C4)CC1` (some centres unmarked) [Example 61] registered an inhibition at 0.1 µM on human 11b-hsd-1 (compound at 0.1 μM) of 74%. On to `O=C(NC1CCCCC1)[C@H]1CCCN1CC1CCCC1` [Example 50], for which the Ki on human 11b-hsd-1 (human 11b-hsd-1) came to 1.3 nM. Besides, 0.1 µM produced 100% inhibition against human 11b-hsd-1 (compound at 0.1 μM). As for `CS(=O)(=O)N1CCC[C@@H]1CN1CCC[C@@H]1C(=O)NC1C2CC3CC(C2)CC1C3` (some centres unmarked) [Example 134], the inhibition at 0.1 µM at human 11b-hsd-1 (compound at 0.1 μM) worked out at 96%. For `O=C(N[C@@H]1CCCc2ccccc21)[C@H]1CCCN1Cc1ccccc1` [Example 295], testing at 0.1 µM on human 11b-hsd-1 (0.1 μM compound) gave an inhibition of 100%. For the same compound, the Ki at human 11b-hsd-1 came to 4.5 nM.

For the compound `CCCN1CCC[C@@H]1C(=O)N[C@H]1C[C@@H]2CC[C@H]1C2` [Example 90], the inhibition at 0.1 µM against human 11b-hsd-1 (compound at 0.1 μM) stood at 100%. In the case of `CCN1CCOC[C@@H]1C(=O)NC1C2CC3CC(C2)CC1C3` (stereo partly drawn) [Example 1, (R)-4-Ethyl-morpholine-3-carboxylic acid adamantan-2-ylamide], the Ki on human 11b-hsd-1 (human 11b-hsd-1) worked out at 2.1 nM. For the same compound, at human 11b-hsd-1 (compound at 0.1 μM), the inhibition at 0.1 µM turned out to be 100%.

The compound `N#Cc1ccc(CN2CCC[C@@H]2C(=O)NCC2CCCCC2)cc1` [Example 328] yielded an inhibition at 0.1 µM against human 11b-hsd-1 (0.1 μM compound) of 100%. The Ki on human 11b-hsd-1 was 3.2 nM. In the same order, the values of `O=C(NCc1cccc(F)c1)[C@H]1CCCN1CC1CCCC1` [Example 240] are 76.3% and 44 nM. With `Cc1ccc(O[C@@H]2CN[C@H](C(=O)NC3C4CC5CC(C4)CC3C5)C2)cn1` (some centres unmarked) [Example 343], 0.1 µM produced 98.6% inhibition at human 11b-hsd-1 (0.1 μM compound). Also, at human 11b-hsd-1, the Ki worked out at 6.3 nM.
